Results from patent US5468734A, “Prophylactic and remedial preparation for diseases attendant on hyperglycemia, and wholesome food” (Godo Shusei Co., Ltd., priority 1992, dated 1995).
Entries after “also recorded” stand apart in the source; their conditions may differ. Read-outs that look alike come from different tables or passages of the source.

Tests used:
[1] = format: in vivo, ICR male mice
Excerpt: (Action to depress increase in body weight of mice)
ICR male mice after the elapse of 5 weeks from their birth were used in proportions of 10 mice per group.
Mice of a control group were caused to freely ingest the same feed as those used in the run groups except that L-arabinose was not added.
The mice of each group were separately weighed after 10 days, 20 days, 30 days and 60 days from the beginning of the ingestion to determine their weight increases from the initial weights, thereby calculating an average value of the weights increased in each group. The amounts of the feeds and water ingested were also determined.

[2] = system: rise in blood sugar; experiment: Action to depress the rise in blood sugar after sucrose loading to mice; format: in vivo, ICR male mice; conditions: for Rise in blood sugar: average ± standard error
Excerpt: (Action to depress the rise in blood sugar after carbohydrate loading)
ICR male mice (weight 30-35 g) were used in proportions of 5 mice per group.
After causing the mice to fast, sucrose or starch was orally administered in a proportion of 1 g/kg to the mice of each group, and at the same time substances to be tested were orally given to mice of their corresponding groups.
Blood was collected from the retroorbital sinus of each mouse before carbohydrate loading and upon elapsed times of 30 minutes, 60 minutes and 120 minutes after the loading to determine the concentration of glucose in the blood plasma by the glucose oxidase method.

[3] = system: maltase (carbohydrase derived from rabbit small intestine mucous membrane); experiment: Action to inhibit the hydrolytic activity of homogenate prepared from rabbit small intestine mucous membrane: maltase inhibition; format: biochemical; conditions: for Maltase inhibition rate: substrate maltose 20 mM, pH 6.8, 37° C., 15 minutes
[4] = in vivo; cited from earlier work
[5] = molecular target: T1, sucrase (carbohydrase derived from rabbit small intestine mucous membrane) (Oryctolagus cuniculus, UniProt P07768); experiment: Action to inhibit the hydrolytic activity of homogenate prepared from rabbit small intestine mucous membrane: sucrase inhibition; format: biochemical
T1 construct: suspended again in a 10 mM potassium phosphate buffer (pH: 7.0), thereby obtaining a crude enzyme suspension; from tissue; host or cells: rabbit small intestine (title: mucous membrane), homogenate, 60,000×g precipitate

[6] = system: rise in blood sugar; experiment: Action to depress the rise in blood sugar after starch loading to mice; format: in vivo, ICR male mice; conditions: starch 1 g/kg; for Rise in blood sugar: average ± standard error
[7] = 0.5%, 1.0%, 2.0% in feed, during the experiment

T1 sequence (P07768 1008-1827 limits assumed): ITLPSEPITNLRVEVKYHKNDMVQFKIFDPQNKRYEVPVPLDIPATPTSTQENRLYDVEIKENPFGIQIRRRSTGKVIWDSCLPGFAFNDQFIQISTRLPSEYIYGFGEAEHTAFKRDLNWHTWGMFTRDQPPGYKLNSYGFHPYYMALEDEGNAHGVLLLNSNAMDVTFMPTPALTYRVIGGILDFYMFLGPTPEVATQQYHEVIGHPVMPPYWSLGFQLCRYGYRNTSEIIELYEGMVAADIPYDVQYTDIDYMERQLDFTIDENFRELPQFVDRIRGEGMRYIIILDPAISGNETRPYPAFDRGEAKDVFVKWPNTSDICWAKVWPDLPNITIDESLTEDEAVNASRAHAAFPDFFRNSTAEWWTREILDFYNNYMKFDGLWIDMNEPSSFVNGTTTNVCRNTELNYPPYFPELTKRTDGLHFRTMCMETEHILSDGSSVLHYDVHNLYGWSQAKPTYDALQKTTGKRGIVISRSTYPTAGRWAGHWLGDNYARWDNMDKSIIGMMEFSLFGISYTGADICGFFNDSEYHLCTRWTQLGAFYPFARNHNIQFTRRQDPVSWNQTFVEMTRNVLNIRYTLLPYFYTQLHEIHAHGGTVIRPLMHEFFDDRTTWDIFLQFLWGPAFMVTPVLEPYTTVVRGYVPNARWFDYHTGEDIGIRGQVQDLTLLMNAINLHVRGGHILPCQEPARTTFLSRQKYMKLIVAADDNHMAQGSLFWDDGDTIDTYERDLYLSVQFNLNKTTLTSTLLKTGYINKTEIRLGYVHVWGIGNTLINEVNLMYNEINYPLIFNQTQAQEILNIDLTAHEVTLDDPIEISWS
T1 sequence (P07768 2-1007 partner limits assumed): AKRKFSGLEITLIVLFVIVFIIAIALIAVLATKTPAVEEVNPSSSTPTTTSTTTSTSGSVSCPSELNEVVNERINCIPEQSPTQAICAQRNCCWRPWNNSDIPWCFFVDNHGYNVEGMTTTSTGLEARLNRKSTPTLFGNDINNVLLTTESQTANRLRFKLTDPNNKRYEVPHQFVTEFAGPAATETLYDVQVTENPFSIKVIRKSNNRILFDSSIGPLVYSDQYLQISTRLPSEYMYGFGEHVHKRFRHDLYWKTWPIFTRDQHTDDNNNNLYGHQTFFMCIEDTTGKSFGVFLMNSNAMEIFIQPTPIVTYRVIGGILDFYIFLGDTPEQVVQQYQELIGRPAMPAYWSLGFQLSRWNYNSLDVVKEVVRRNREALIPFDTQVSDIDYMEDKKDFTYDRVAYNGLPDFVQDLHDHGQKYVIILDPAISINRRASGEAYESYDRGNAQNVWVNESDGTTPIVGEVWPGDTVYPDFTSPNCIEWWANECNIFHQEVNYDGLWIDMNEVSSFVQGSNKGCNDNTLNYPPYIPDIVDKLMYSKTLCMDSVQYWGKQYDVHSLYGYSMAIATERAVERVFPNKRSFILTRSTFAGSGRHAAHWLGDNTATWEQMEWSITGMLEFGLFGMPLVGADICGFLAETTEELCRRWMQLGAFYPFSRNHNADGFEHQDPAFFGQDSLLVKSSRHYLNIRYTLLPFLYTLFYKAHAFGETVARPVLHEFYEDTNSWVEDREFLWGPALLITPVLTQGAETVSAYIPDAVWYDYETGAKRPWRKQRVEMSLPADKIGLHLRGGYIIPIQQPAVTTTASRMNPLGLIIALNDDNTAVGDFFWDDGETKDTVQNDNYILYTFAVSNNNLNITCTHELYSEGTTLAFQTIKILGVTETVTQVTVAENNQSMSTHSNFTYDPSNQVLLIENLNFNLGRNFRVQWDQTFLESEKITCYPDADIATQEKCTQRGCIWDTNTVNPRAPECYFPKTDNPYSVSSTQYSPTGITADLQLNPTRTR

O=C[C@H](O)[C@@H](O)[C@@H](O)CO [L-Arabinose, L-arabinose]
Weight increase ([1]; 0.5% in feed (Group 1 / A1), after 10 days): 5.9 g
Weight increase ([1]; 0.5% in feed (Group 1 / A1), after 20 days): 9.2 g
Weight increase ([1]; 0.5% in feed (Group 1 / A1), after 30 days): 12.4 g
Weight increase ([1]; 0.5% in feed (Group 1 / A1), after 60 days): 15.0 g
death [1, 7]: no death at all
general medical condition and behavior [1, 7]: no abnormality in general medical condition and behavior
weight increase compared with control group (in words) ([1]; 0.5%, 1.0%, 2.0% in feed, up to 60 days): less weight increases compared with the mice of the control group
Weight increase ([1]; 1.0% in feed (Group 2 / A2), after 10 days): 5.3 g
Weight increase ([1]; 1.0% in feed (Group 2 / A2), after 20 days): 8.0 g
Weight increase ([1]; 1.0% in feed (Group 2 / A2), after 30 days): 11.7 g
Weight increase ([1]; 1.0% in feed (Group 2 / A2), after 60 days): 13.8 g
Weight increase ([1]; 2.0% in feed (Group 3 / A3), after 10 days): 4.7 g
Weight increase ([1]; 2.0% in feed (Group 3 / A3), after 20 days): 7.2 g
Weight increase ([1]; 2.0% in feed (Group 3 / A3), after 30 days): 10.2 g
Weight increase ([1]; 2.0% in feed (Group 3 / A3), after 60 days): 12.1 g
Rise in blood sugar ([2]; sucrose 1 g/kg, dose 25 mg/kg oral, after 30 min.): 71.7 Δmg/dl
Rise in blood sugar ([2]; sucrose 1 g/kg, dose 25 mg/kg oral, after 60 min.): 49.4 Δmg/dl
Rise in blood sugar ([2]; sucrose 1 g/kg, dose 50 mg/kg oral, after 30 min.): 62.9 Δmg/dl
Rise in blood sugar ([2]; sucrose 1 g/kg, dose 50 mg/kg oral, after 60 min.): 37.3 Δmg/dl
Rise in blood sugar ([2]; sucrose 1 g/kg, dose 50 mg/kg oral, after 120 min.): 21.5 Δmg/dl
Rise in blood sugar ([2]; sucrose 1 g/kg, dose 100 mg/kg oral, after 30 min.): 41.8 Δmg/dl
Rise in blood sugar ([2]; sucrose 1 g/kg, dose 100 mg/kg oral, after 60 min.): 30.4 Δmg/dl
Rise in blood sugar ([2]; sucrose 1 g/kg, dose 100 mg/kg oral, after 120 min.): 20.3 Δmg/dl
action to depress the rise in blood sugar due to sucrose loading (in words) ([2]; sucrose 1 g/kg, orally 25, 50 and 100 mg/kg (L-arabinose, D-xylose) or 100 mg/kg (others)): depressed in dependence on the dose
action to depress the rise in blood sugar for sucrose or starch loading (in words) ([2]; sucrose or starch loading, summary statement): remarkably effective in depressing the rise in blood sugar after carbohydrate loading; also recorded: effective action to depress the rise in blood sugar
maltase-inhibiting action (in words) [3]: strong sucrase-inhibiting action and maltase-inhibiting action
Maltase inhibition rate ([3]; 25 mg/dl): 28.5%
Maltase inhibition rate ([3]; 50 mg/dl): 35.8%
Maltase inhibition rate ([3]; 100 mg/dl): 45.7%
Maltase inhibition rate ([3]; 200 mg/dl): 47.4%
uptake from the digestive tract [4]: hard to be taken up from the digestive tract
sucrase-inhibiting action (in words) [5]: strong sucrase-inhibiting action
inhibition at 250 µg/mL ([5]; 0.25 h, 25 mg/dl, substrate sucrose 20 mM, pH 6.8, 37° C., 15 minutes, read-out: Sucrase inhibition rate): 25.3%
inhibition at 500 µg/mL ([5]; 0.25 h, 50 mg/dl, substrate sucrose 20 mM, pH 6.8, 37° C., 15 minutes, read-out: Sucrase inhibition rate): 37.8%
inhibition at 1000 µg/mL ([5]; 0.25 h, 100 mg/dl, substrate sucrose 20 mM, pH 6.8, 37° C., 15 minutes, read-out: Sucrase inhibition rate): 52%
inhibition at 2000 µg/mL ([5]; 0.25 h, 200 mg/dl, substrate sucrose 20 mM, pH 6.8, 37° C., 15 minutes, read-out: Sucrase inhibition rate): 66.3%
depressing action on the rise in blood sugar due to starch loading (in words) [6]: depressing action on the rise in blood sugar due to starch loading in dependence on the dose
Rise in blood sugar ([6]; dose 25 mg/kg oral, after 30 min.): 91.1 Δmg/dl
Rise in blood sugar ([6]; dose 25 mg/kg oral, after 60 min.): 68.5 Δmg/dl
Rise in blood sugar ([6]; dose 25 mg/kg oral, after 120 min.): 29.8 Δmg/dl
Rise in blood sugar ([6]; dose 50 mg/kg oral, after 30 min.): 71.4 Δmg/dl
Rise in blood sugar ([6]; dose 50 mg/kg oral, after 60 min.): 54.6 Δmg/dl
Rise in blood sugar ([6]; dose 100 mg/kg oral, after 30 min.): 59.6 Δmg/dl
Rise in blood sugar ([6]; dose 100 mg/kg oral, after 60 min.): 48.3 Δmg/dl
Rise in blood sugar ([6]; dose 100 mg/kg oral, after 120 min.): 24.6 Δmg/dl
